Test results: patent US12344606B2, “Next-generation modulators of stimulator of interferon genes (STING)” (RYVU THERAPEUTICS S.A., priority 2019, dated 2025)

Legend:
[1] = system: NF-κB pathway in THP-1 dual cells; assay: THP-1 Dual reporter assay, NF-κB pathway (SEAP); format: cell-based; settings: Homo sapiens, THP1-Dual; 18 h stimulation, absorbance; read-out: THP1 Dual EC50 (μM) NFkB
Procedure: (§1) Compounds of the present invention were tested for their activity using THP-1 dual cells (Invivogen, cat no. thpd-nfis) allowing for simultaneous study of NF-κB pathway and the interferon regulatory factor (IRF) pathway. THP-1 dual cells contain luciferase reporter gene under the control of an ISG54 (interferon-stimulated gene) minimal promoter in conjunction with five interferon-stimulated response elements and a secreted embryonic alkaline phosphatase reporter gene under the control an IFN (interferon)-β minimal promoter fused to five copies of the NF-κB consensus transcriptional response element with three copies of the c-Rel binding site. Following 18 h of stimulation with STING agonist, medium was collected and transferred onto fresh cell culture plate. To verify activity of the IRF pathway, luminescence activity was measured with standard laboratory plate reader immediately after addition 10 μl of the medium to 50 μl (or 40 μl) of luminescence reagent (Invivogen, cat. No. rep-qlc2). To verify activity of NF-κB pathway, 20 μl (or 10 μl) of the medium was mixed with 80 μl of a detection medium (Invivogen, cat. No. rep-qb2) and incubated for 2 hours (or 1 hour) at 37° C. in a humidified atmosphere containing 5% CO2. Next, absorbance at 630 nm (or 655 nm) was recorded using standard laboratory plate reader.

[2] = molecular target: human STING (Homo sapiens, UniProt Q86WV6); assay: Fluorescence Thermal Shift assay (hSTING FTS binding assay); settings: STING 0.1 mg/ml, 20 min preincubation, SyproOrange
Procedure: Compounds of the present invention were tested for binding to human STING in Fluorescence Thermal Shift assay. STING was preincubated with the compounds for 20 minutes in 50 mM Hepes, 150 mM NaCl, pH 7.5 in 16 μl volume, following by adding 4 μl of SyproOrange dye dilution (ThermoFisher, cat no. S-6651). Final STING concentration was 0.1 mg/ml. Thermal unfolding was performed in Real-Time PCR QuantStudio 6 Flex System (Applied Biosystems), from 25 to 99° C., with continuous ramp mode and ramp rate 0.033° C./s. The data were analyzed using Protein Thermal Shift Software (ThermoFisher).

[3] = system: interferon regulatory factor (IRF) pathway in THP-1 dual cells; assay: THP-1 Dual reporter assay, IRF pathway (luciferase); format: cell-based; settings: Homo sapiens, THP1-Dual; 18 h stimulation, luminescence
Procedure: as §1

human STING, sequence (Q86WV6 whole entry H232R): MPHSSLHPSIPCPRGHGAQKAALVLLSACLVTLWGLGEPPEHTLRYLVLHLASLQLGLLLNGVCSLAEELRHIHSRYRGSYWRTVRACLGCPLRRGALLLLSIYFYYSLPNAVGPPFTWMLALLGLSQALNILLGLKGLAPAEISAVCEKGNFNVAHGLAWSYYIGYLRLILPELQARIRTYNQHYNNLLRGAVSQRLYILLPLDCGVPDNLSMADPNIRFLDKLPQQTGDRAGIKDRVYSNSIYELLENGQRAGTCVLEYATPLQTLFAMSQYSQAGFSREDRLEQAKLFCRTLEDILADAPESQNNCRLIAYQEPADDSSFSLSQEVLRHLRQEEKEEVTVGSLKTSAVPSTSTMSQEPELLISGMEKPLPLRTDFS

SMILES | EC50 [1] [µM] | hSTING FTS binding assay (ΔT C.°) [2] | EC50 [3] [µM]
Cc1cc(CN(Cc2cn(C)c3ccccc3c2=O)C2CCCN(c3cccnc3)C2)ccn1 (stereo not drawn) [Example 2, 1-methyl-3-({[(2-methylpyridin-4-yl)methyl][1-(pyridin-3-yl)piperidin-3-yl]amino}methyl)-1,4-dihydroquinolin-4-one] | ≤ 1 | ++ (ΔTm>10° C.) | ≤ 1
COc1cc(CN(Cc2cn(C)c3ccccc3c2=O)C2CCCN(c3cccnn3)C2)ccn1 (stereo not drawn) [Example 3, 3-({[(2-methoxypyridin-4-yl)methyl][1-(pyridazin-3-yl)piperidin-3-yl]amino}methyl)-1-methyl-1,4-dihydroquinolin-4-one] | ≥ 10 | + (ΔTm<10° C.) | ≥ 10
COc1cc(CN(Cc2cn(C)c3ccccc3c2=O)C2CCCN(c3cnccn3)C2)ccn1 (stereo not drawn) [Example 4, 3-({[(2-methoxypyridin-4-yl)methyl][1-(pyrazin-2-yl)piperidin-3-yl]amino}methyl)-1-methyl-1,4-dihydroquinolin-4-one] | 1 to 10 | + (ΔTm<10° C.) | 1 to 10
Cc1cc(CN(Cc2cn(C)c3ccccc3c2=O)[C@H]2CCCN(c3cccnc3)C2)ccn1 [Example 5, 1-methyl-3-({[(2-methylpyridin-4-yl)methyl][(3S)-1-(pyridin-3-yl)piperidin-3-yl]amino}methyl)-1,4-dihydroquinolin-4-one] | ≤ 1 | ++ (ΔTm>10° C.) | ≤ 1
COc1cc(CN(Cc2c[nH]c3ccccc3c2=O)[C@H]2CCCN(c3cccnc3)C2)ccn1 [Example 6, 3-({[(2-methoxypyridin-4-yl)methyl][(3S)-1-(pyridin-3-yl)piperidin-3-yl]amino}methyl)-1,4-dihydroquinolin-4-one] | ≤ 1 | ++ (ΔTm>10° C.) | ≤ 1
Cc1ccc(N2CCC[C@H](N(Cc3ccnc(C)c3)Cc3cn(C)c4ccccc4c3=O)C2)cn1 [Example 7, 1-methyl-3-({[(3S)-1-(6-methylpyridin-3-yl)piperidin-3-yl][(2-methylpyridin-4-yl)methyl]amino}methyl)-1,4-dihydroquinolin-4-one] | ≤ 1 |  | ≤ 1
COc1ncc(N2CCC[C@H](N(Cc3ccnc(C)c3)Cc3cn(C)c4ccccc4c3=O)C2)cn1 [Example 8, 3-({[(3S)-1-(2-methoxypyrimidin-5-yl)piperidin-3-yl][(2-methylpyridin-4-yl)methyl]amino}methyl)-1-methyl-1,4-dihydroquinolin-4-one] | ≥ 10 | + (ΔTm<10° C.) | ≥ 10
COc1cc(CN(Cc2cn(C3CC3)c3cc(N4CCN(C)CC4)c(F)cc3c2=O)[C@H]2CCCN(c3cccnc3)C2)ccn1 [Example 9, 1-cyclopropyl-6-fluoro-3-({[(2-methoxypyridin-4-yl)methyl][(3S)-1-(pyridin-3-yl)piperidin-3-yl]amino}methyl)-7-(4-methylpiperazin-1-yl)-1,4-dihydroquinolin-4-one] | ≤ 1 | ++ (ΔTm>10° C.) | ≤ 1
Cc1cc(CN(Cc2cn(C)c3ccccc3c2=O)[C@H]2CCCN(c3cc(Cl)ncn3)C2)ccn1 [Example 17, 3-({[(3S)-1-(6-chloropyrimidin-4-yl)piperidin-3-yl][(2-methylpyridin-4-yl)methyl]amino}methyl)-1-methyl-1,4-dihydroquinolin-4-one] | 1 to 10 |  | 1 to 10
Cc1cc(CN(Cc2cn(C)c3ccccc3c2=O)[C@H]2CCCN(c3ccnc(Cl)n3)C2)ccn1 [Example 19, 3-({[(3S)-1-(2-chloropyrimidin-4-yl)piperidin-3-yl][(2-methylpyridin-4-yl)methyl]amino}methyl)-1-methyl-1,4-dihydroquinolin-4-one] |  | + (ΔTm<10° C.) | 
Cc1cc(CN(Cc2cn(C3CC3)c3cc(Cl)c(F)cc3c2=O)[C@H]2CCCN(c3cccnc3)C2)ccn1 [Example 33, 7-chloro-1-cyclopropyl-6-fluoro-3-({[(2-methylpyridin-4-yl)methyl][(3S)-1-(pyridin-3-yl)piperidin-3-yl]amino}methyl)-1,4-dihydroquinolin-4-one] | ≤ 1 |  | ≤ 1
Cc1cc(CN(Cc2cn(C)c3ccccc3c2=O)[C@H]2CCCN(c3ccnc(Cl)n3)C2)ccn1 [Example 54, 3-({[(3S)-1-(2-chloropyrimidin-4-yl)piperidin-3-yl][(2-methylpyridin-4-yl)methyl]amino}methyl)-1-methyl-1,4-dihydroquinolin-4-one] | 1 to 10 |  | 1 to 10
Cc1ccc(N2CCC[C@H](N(Cc3ccnc(C)c3)Cc3cn(C4CC4)c4cc(C5=CCCCC5)c(F)cc4c3=O)C2)cn1 [Example 57, 7-(cyclohex-1-en-1-yl)-1-cyclopropyl-6-fluoro-3-({[(3S)-1-(6-methylpyridin-3-yl)piperidin-3-yl][(2-methylpyridin-4-yl)methyl]amino}methyl)-1,4-dihydroquinolin-4-one] | ≤ 1 |  | ≤ 1
Cc1ccc(N2CCC[C@H](N(Cc3ccnc(C)c3)Cc3cn(C)c4c(Br)cccc4c3=O)C2)cn1 [Example 60, 8-bromo-1-methyl-3-({[(3S)-1-(6-methylpyridin-3-yl)piperidin-3-yl][(2-methylpyridin-4-yl)methyl]amino}methyl)-1,4-dihydroquinolin-4-one] | ≤ 1 |  | ≤ 1
Cc1ccc(N2CCC[C@H](N(Cc3ccnc(C)c3)Cc3cn(C(C)C)c4nc(Cl)c(F)cc4c3=O)C2)cn1 [Example 61, 7-chloro-6-fluoro-3-({[(3S)-1-(6-methylpyridin-3-yl)piperidin-3-yl][(2-methylpyridin-4-yl)methyl]amino}methyl)-1-(propan-2-yl)-1,4-dihydro-1,8-naphthyridin-4-one] | ≤ 1 |  | ≤ 1
COc1nc2c(cc1F)c(=O)c(CN(Cc1ccnc(C)c1)[C@H]1CCCN(c3ccc(C)nc3)C1)cn2C(C)C [Example 62, 6-fluoro-7-methoxy-3-({[(3S)-1-(6-methylpyridin-3-yl)piperidin-3-yl][(2-methylpyridin-4-yl)methyl]amino}methyl)-1-(propan-2-yl)-1,4-dihydro-1,8-naphthyridin-4-one] | ≤ 1 |  | ≤ 1
Cc1cc(CN(Cc2cn(C)c3ccccc3c2=O)[C@H]2CCCN(c3cccnc3)C2)n(C)n1 [Example 63, 3-({[(1,3-dimethyl-1H-pyrazol-5-yl)methyl][(3S)-1-(pyridin-3-yl)piperidin-3-yl]amino}methyl)-1-methyl-1,4-dihydroquinolin-4-one] | ≥ 10 |  | 1 to 10
Cc1ccc(N2CCC[C@H](N(Cc3ccnc(C)c3)Cc3cn(C4CC4)c4cc(C5COCCN5)ccc4c3=O)C2)cn1 (stereo partly drawn) [Example 64, 1-Cyclopropyl-3-({[(3S)-1-(6-methylpyridin-3-yl)piperidin-3-yl][(2-methylpyridin-4-yl)methyl]amino}methyl)-7-(morpholin-3-yl)-1,4-dihydroquinolin-4-one] | ≤ 1 |  | ≤ 1
